Measurements as given in patent US20210038730A1, “PEPTIDE NANOFIBERS” (UNIVERSITY OF PORTSMOUTH HIGHER EDUCATION CORPORATION, priority 2018, published 2021).
Converted amounts (≈) assume the structure as drawn. Like-named read-outs stand apart in the source and are kept apart here.

Columns and labels:
[1] = target: T1, GnRH-R expressed on glioblastoma cells (Homo sapiens, UniProt P30968); test: Receptor binding by single molecule force spectroscopy; conditions: for koff: read-out: Dissociation Rate (Koff)
T1 construct: GnRH peptides to the GnRH-R expressed on glioblastoma cells; endogenous in cells; host or cells: U-87 MG, UP-007, UP-029, SEBTA-023 glioblastoma cells (living)
T1 sequence (P30968 1-328): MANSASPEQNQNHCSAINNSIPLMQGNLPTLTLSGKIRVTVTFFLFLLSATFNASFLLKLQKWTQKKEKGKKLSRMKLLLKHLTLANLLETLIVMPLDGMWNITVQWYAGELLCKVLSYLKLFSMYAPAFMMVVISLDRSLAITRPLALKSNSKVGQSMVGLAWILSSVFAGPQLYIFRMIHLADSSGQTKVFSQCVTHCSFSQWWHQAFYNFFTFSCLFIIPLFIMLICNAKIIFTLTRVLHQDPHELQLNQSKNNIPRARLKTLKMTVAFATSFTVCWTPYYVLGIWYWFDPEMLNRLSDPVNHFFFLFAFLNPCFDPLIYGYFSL
Method: The binding of the GnRH analogues to GnRH-R was assessed using single molecule force spectroscopy (SMFS) and Topography and Recognition (TREC) imaging based on AFM. AFM tips were functionalised with Glu-GnRH, goserelin acetate and […] as a monomer and nanofibers using a previously described method ^9, 10. Silicon nitride (6-20 pN/nm spring constant, Bruker, Mass., USA) and magnetically coated […] tips (Keysight, Calif., USA) were used for SMFS and TREC studies, respectively. […] Subsequently, acetal groups were converted into aldehyde groups by immersing the tips in a 1% (w/v) citric acid solution for 10 minutes. […] Following an incubation of 2 hours, the free aldehyde groups were inactivated by ethanolamine for 10 minutes. AFM tips were washed with PBS three times and stored at 4° C. […] Loading rates were calculated by multiplying the pulling velocity (v) with the effective spring constant (keff). Spring constants were determined by the thermal-noise method. The force-distance curves were acquired using PicoView 1.12 (Agilent Technologies, Inc., California, USA) and analysed in Matlab 8.1 software (MathWorks, Massachusetts, USA). […] Amplitude-distance curves were collected on a glass coverslip to adjust the free oscillation amplitude, and to determine the optimal amplitude reduction value for driving the feedback loop during the imaging. Free amplitude of cantilever oscillation was 30 nm and the excitation frequency was set to 9 kHz.

[2] = Enzymatic stability in rat plasma; conditions: 50% (v/v) rat plasma
Method: (§1) Fresh blood, obtained from adult male Wistar rats, was collected in sterile the 170 I.U. lithium heparin-coated tubes (Vacutainer, BD Bioscience, UK). Blood was centrifuged immediately at 2,000 g for 15 minutes (4° C.) and supernatant was collected and diluted to 50% (v/v) with PBS. Livers and brains were obtained from adult male Wistar rats, and the tissues were blotted to dryness, weighed, sliced into pieces, and homogenised with ice-cold PBS (in 2 mL of buffer g^−1 of tissue) using the glass homogeniser. Then, tissue homogenates were centrifuged at 4,300 g for 1 hour (4° C.) and the supernatants collected. Glioblastoma cell homogenates were prepared using U-87 MG cells. Cells were cultured in Eagle's Minimum Essential Medium (EMEM) supplemented with 10% (v/v) heat-inactivated fetal bovine serum (FBS), 1% (v/v) of non-essential amino acids (NEAA) and 1 mM of sodium pyruvate in T75 flasks with a surface area of 75 cm^2 and maintained in a humidified atmosphere of 5% CO2 at 37° C. Breast cancer cell homogenates were prepared using MDA-MB-231 cells. Cells were cultured in Dulbecco's Modified Eagle Medium (DMEM) supplemented with high levels of glucose (4.5 g/L), 10% (v/v) heat-inactivated fetal bovine serum (FBS), 1% (v/v) of non-essential amino acids (NEAA) and penicillin and streptomycin (500 units/mL) in T75 flasks with a surface area of 75 cm^2 and maintained in a humidified atmosphere of 5% CO2 at 37° C. Media was changed for both cell lines every 3 to 4 days. After reaching confluence, cells were washed twice with Hank's Balanced Salt Solution (HBSS) and incubated with ˜2 mL of TrypLE Enzyme at 37° C. for ˜3 minutes. Then, complete media were added, and cells were centrifuged at 1,000 rpm for 5 minutes in C-28A centrifuge (Boeco, Germany). U-87 MG or MDA-MB-231 cells (˜10×10^6 cells mL^−1) were re-suspended in ice-cold PBS, and homogenised with a 2×5 second pulses with the probe sonicator (UP200S Ultrasonic processor, SciMed, 200 watts, amplitude of 60%). Cell debris were removed by centrifugation at 2,000 rpm for 5 minutes (Jouan B4i, Thermo Scientific, Paisley, UK). Supernatant was collected and stored at −80° C. Total protein concentration in the homogenates was determined using the Bradford assay with bovine serum albumin as a standard. Diluted plasma, tissue or cell homogenates were pre-warmed during ˜30 minutes at 37° C. Peptide stock solutions (Glu-GnRH, goserelin acetate and TPGnRH, 5 mM in PBS, 500 μL) were prepared and added to the homogenate solutions (120 μL). […] Samples were vortexed for 15 minutes, centrifuged for 15 minutes at 12,000 rpm, and the supernatants were collected and analysed by RP-HPLC.

[3] = Enzymatic stability in U-87 MG cell homogenates
Method: Fresh blood, obtained from adult male Wistar rats, was collected in sterile the 170 I.U. lithium heparin-coated tubes (Vacutainer, BD Bioscience, UK). Blood was centrifuged immediately at 2,000 g for 15 minutes (4° C.) and supernatant was collected and diluted to 50% (v/v) with PBS. Livers and brains were obtained from adult male Wistar rats, and the tissues were blotted to dryness, weighed, sliced into pieces, and homogenised with ice-cold PBS (in 2 mL of buffer g^−1 of tissue) using the glass homogeniser. Then, tissue homogenates were centrifuged at 4,300 g for 1 hour (4° C.) and the supernatants collected. Glioblastoma cell homogenates were prepared using U-87 MG cells. Cells were cultured in Eagle's Minimum Essential Medium (EMEM) supplemented with 10% (v/v) heat-inactivated fetal bovine serum (FBS), 1% (v/v) of non-essential amino acids (NEAA) and 1 mM of sodium pyruvate in T75 flasks with a surface area of 75 cm^2 and maintained in a humidified atmosphere of 5% CO2 at 37° C. Breast cancer cell homogenates were prepared using MDA-MB-231 cells. Cells were cultured in Dulbecco's Modified Eagle Medium (DMEM) supplemented with high levels of glucose (4.5 g/L), 10% (v/v) heat-inactivated fetal bovine serum (FBS), 1% (v/v) of non-essential amino acids (NEAA) and penicillin and streptomycin (500 units/mL) in T75 flasks with a surface area of 75 cm^2 and maintained in a humidified atmosphere of 5% CO2 at 37° C. Media was changed for both cell lines every 3 to 4 days. After reaching confluence, cells were washed twice with Hank's Balanced Salt Solution (HBSS) and incubated with ˜2 mL of TrypLE Enzyme at 37° C. for ˜3 minutes. Then, complete media were added, and cells were centrifuged at 1,000 rpm for 5 minutes in C-28A centrifuge (Boeco, Germany). […] Total protein concentration in the homogenates was determined using the Bradford assay with bovine serum albumin as a standard. […] Samples were vortexed for 15 minutes, centrifuged for 15 minutes at 12,000 rpm, and the supernatants were collected and analysed by RP-HPLC.

[4] = target: T2, GnRH-R on U-87 MG cells (Homo sapiens, UniProt P30968); test: SMFS blocking experiments with free GnRH-R ligands; assay type: binding
T2 construct: endogenous in cells; host or cells: U-87 MG
T2 sequence (P30968 1-328): T1 sequence (P30968 1-328)
Method: Blocking experiments were performed with different GnRH-R ligands (anti-GnRH-R antibody, Glu-GnRH, goserelin acetate, and TPGnRH). U-87 MG cells were analysed with tips functionalised with TPGnRH nanofibers and then the free ligands were added at a final concentration of 1 μg mL^−1 (anti-GnRH-R antibody) or 50 μg mL^−1 (Glu-GnRH, goserelin acetate and TPGnRH). U-87 MG cells treated with ligands were incubated for, at least, one hour at room temperature, and then the same cells were analysed with the same TPGnRH-functionalised tip at the same location in the cell.

[5] = Enzymatic stability in rat brain homogenates; conditions: 50% (v/v) rat brain homogenates
Method: as §1

[6] = Enzymatic stability in rat liver homogenates; conditions: 50% (v/v) rat liver homogenates; analyte in brackets of label
Method: (§2) Fresh blood, obtained from adult male Wistar rats, was collected in sterile the 170 I.U. lithium heparin-coated tubes (Vacutainer, BD Bioscience, UK). Blood was centrifuged immediately at 2,000 g for 15 minutes (4° C.) and supernatant was collected and diluted to 50% (v/v) with PBS. Livers and brains were obtained from adult male Wistar rats, and the tissues were blotted to dryness, weighed, sliced into pieces, and homogenised with ice-cold PBS (in 2 mL of buffer g^−1 of tissue) using the glass homogeniser. Then, tissue homogenates were centrifuged at 4,300 g for 1 hour (4° C.) and the supernatants collected. Glioblastoma cell homogenates were prepared using U-87 MG cells. Cells were cultured in Eagle's Minimum Essential Medium (EMEM) supplemented with 10% (v/v) heat-inactivated fetal bovine serum (FBS), 1% (v/v) of non-essential amino acids (NEAA) and 1 mM of sodium pyruvate in T75 flasks with a surface area of 75 cm^2 and maintained in a humidified atmosphere of 5% CO2 at 37° C. Breast cancer cell homogenates were prepared using MDA-MB-231 cells. Cells were cultured in Dulbecco's Modified Eagle Medium (DMEM) supplemented with high levels of glucose (4.5 g/L), 10% (v/v) heat-inactivated fetal bovine serum (FBS), 1% (v/v) of non-essential amino acids (NEAA) and penicillin and streptomycin (500 units/mL) in T75 flasks with a surface area of 75 cm^2 and maintained in a humidified atmosphere of 5% CO2 at 37° C. Media was changed for both cell lines every 3 to 4 days. After reaching confluence, cells were washed twice with Hank's Balanced Salt Solution (HBSS) and incubated with ˜2 mL of TrypLE Enzyme at 37° C. for ˜3 minutes. Then, complete media were added, and cells were centrifuged at 1,000 rpm for 5 minutes in C-28A centrifuge (Boeco, Germany). U-87 MG or MDA-MB-231 cells (˜10×10^6 cells mL^−1) were re-suspended in ice-cold PBS, and homogenised with a 2×5 second pulses with the probe sonicator (UP200S Ultrasonic processor, SciMed, 200 watts, amplitude of 60%). Cell debris were removed by centrifugation at 2,000 rpm for 5 minutes (Jouan B4i, Thermo Scientific, Paisley, UK). Supernatant was collected and stored at −80° C. Total protein concentration in the homogenates was determined using the Bradford assay with bovine serum albumin as a standard. Diluted plasma, tissue or cell homogenates were pre-warmed during ˜30 minutes at 37° C. Peptide stock solutions (Glu-GnRH, goserelin acetate and TPGnRH, 5 mM in PBS, 500 μL) were prepared and added to the homogenate solutions (120 μL). PAX-loaded nanofibers prepared at a ratio of 1:7.36 [PAX:TPGnRH consisting of 3 μmol (2.56 mg mL^−1) of PAX, 22.02 μmol (31.46 mg mL^−1) of TPGnRH], as previously described, and further diluted in PBS to achieve a concentration of 5 mM of TPGnRH and 500 nM of PAX (120 μL) were added to the homogenates. At various time intervals, an aliquot was collected (80 μL) and added to ice-cold ACN (80 μL) to quench the enzymatic activity. Samples were stored at −80° C. for at least 3 hours to maximise protein precipitation. Samples were vortexed for 15 minutes, centrifuged for 15 minutes at 12,000 rpm, and the supernatants were collected and analysed by RP-HPLC.

[7] = Enzymatic stability in MDA-MB-231 cell homogenates
Method: as §2

[8] = physchem
Method: Paclitaxel (PAX)-loaded TPGnRH nanofibers were prepared by adding a PAX solution (250 μL, 2.562 mg mL^−1 in isopropyl alcohol, IPA) to the dry peptide to achieve a molar ratio of 1:1, 1:1.95, 1:3.68 or 1:7.36 of PAX:TPGnRH. After vortexing, bath and probe sonication (200 watts, amplitude 60%, UP200S Ultrasonic, SciMed, Stockport, UK) for 10 minutes, the IPA was removed by rotary evaporation. The film was re-hydrated in acetate buffer (50 mM, pH 4.5), and the final formulation was centrifuged for 5 minutes at 900 rpm to remove undissolved PAX. Supernatant was collected and the amount of PAX and TPGnRH was quantified by reverse phase-HPLC. […] Morphology of PAX-loaded formulations was evaluated using TEM and AFM, as described above.

[9] = in vitro; conditions: human
Method: In order to test the permeability of TPGnRH nanofibers across the blood-brain barrier (BBB), a static contact co-culture was set up according to a previous method^7. Briefly, human astrocytes (SC-1800, 25,000 cells/well) were seeded on the abluminal side of a 24-well plate Transwell polycarbonate membrane (3 μm of a pore size, Corning Star, Deeside, UK) coated with human fibronectin. Cells were allowed to attach for 3 days, and then human brain microvascular endothelial cells (hCMEC/D3, 75,000 cells/well) were seeded on the luminal side of the Transwell and co-cultured with astrocytes for five days with a daily change of the media. Transendothelial resistance was measured using EVOM voltohmmeter (World Precision Instruments, Berlin, Germany).
Transwells were washed with HBSS and immersed into HBSS (600 μL in abluminal side). […] Samples (100 μL) were collected from the abluminal side at specific time-points, and fresh HBSS (100 μL) was used to replace the volume from the abluminal compartments. […] PAX was analysed using reverse phase-HPLC with the gradient method described on Table 2. TR-TPGnRH was quantified in POLARstar Omega plate reader spectrophotometer with λexc 596 and λem 615 nm. The permeability coefficient (Papp) was determined using the equation: […]
ΔQr, is the flux of drug along time (μg mL^−1), Vr is the volume of the abluminal side (mL), A is the area of the Transwell membrane, C0 is the concentration of drug in the luminal side, and 60, the converser factor from minutes to seconds^8.

[10] = Release from 3D printed cellulose-sodium alginate bioinks; assay type: physicochemical; conditions: PBS
Method: Peptide nanofibers were embedded in cellulose nanocrystals and sodium alginate hydrogels. Cellulose nanocrystals were synthesised by sulphuric acid degradation (45% w/v, 150 mls) of cellulose (15 g, Western Hemlock) at 50° C. over 90 minutes under stirring. Cold-deionised water was used to quench reaction and acid was removed by centrifugation (4,000 rpm, 10 minutes). Cellulose nanocrystals were dialysed (12-14 kDa for cytochrome C, Medicell Ltd) over 5 L with 6 changes over 24 hours. Resulting suspension was probe sonicated (400 watt, 23% amplitude, 10 minutes) in 50 mLs aliquots. The resulting suspension was centrifuged (4,000 rpm, 10 minutes) and supernatant was stored in the refrigerator. Cellulose nanocrystals (CNCs, 4.5% w/w, 2 g) were loaded onto a syringe attached to a three-way valve, where a syringe loaded sodium alginate (6% w/w in 4.6% glucose, 1.7 g). The CNCs were injected in the sodium alginate syringe and mixed 10 times (in each direction). Sample was collected in one syringe and a new syringe containing calcium chloride (0.1M, 0.9 mL). Sample was pushed into calcium chloride and mixed 5 times (in each direction) prior collecting the gel in one syringe and loading in cartridges. Peptide nanofibers (5 mg) were dispersed in 0.9 mL of 0.1M calcium chloride and mixed as above when needed. Release of paclitaxel loaded and TPGnRH gels in PBS (1×, 7.4, 6 mLs) was quantified as per HPLC method described previously (Example 7, Table 2). After an initial burst release, a controlled release profile is observed with gradual slow release over days. Resulting inks can be utilised for the production of nanofiber loaded implants for tumour patients.

[11] = after pre-incubation with the free ligand named as label (antibody 1 μg mL^−1, peptides 50 μg mL^−1)
[12] = before addition of the free ligand named as label (no pre-incubation)
[13] = human, MDA-MB-231 breast cancer cell homogenate

**Q.** What does the source list for `CC(C)C[C@H](NC(=O)CNC(=O)[C@H](Cc1ccc(O)cc1)NC(=O)[C@H](CO)NC(=O)[C@H](Cc1c[nH]c2ccccc12)NC(=O)[C@H](Cc1cnc[nH]1)NC(=O)[C@@H](N)CCC(=O)O)C(=O)N[C@@H](CCCNC(=N)N)C(=O)N1CCC[C@H]1C(=O)NCC(N)=O` [Glu-GnRH, Glu-His-Trp-Ser^4-Tyr^5-Gly^6-Leu-Arg-Pro-Gly-NH2, reference compound]?
**A.** Binding Force ([1]; SEBTA-023): 40.3 ± 11.70 pN; Binding Probability ([1]; SEBTA-023): 4.93 ± 0.91%; koff ([1]; SEBTA-023): 1.22 ± 0.31 s⁻¹; Binding Force ([1]; U-87 MG): 25.88 ± 0.94 pN; Binding Probability ([1]; U-87 MG): 13.3 ± 1.91%; koff ([1]; U-87 MG): 1.29 ± 0.34 s⁻¹; Binding Force ([1]; UP-007): 38.20 ± 9.16 pN; Binding Probability ([1]; UP-007): 12.84 ± 4.32%; koff ([1]; UP-007): 1.52 ± 0.2 s⁻¹; Binding Force ([1]; UP-029): 45.6 ± 4.64 pN; Binding Probability ([1]; UP-029): 6.93 ± 2.96%; koff ([1]; UP-029): 1.66 ± 0.25 s⁻¹; Plateau [2]: 3.952 µg/mL; k ([2]; analyte in brackets of label): 0.04021 min⁻¹; Plateau [3]: 3.952 µg/mL; k ([3]; analyte in brackets of label): 0.1928 min⁻¹; Binding Probability of TPGnRH nanofiber tip to U-87 MG cells [4, 11]: 3.4%; Binding Probability of TPGnRH nanofiber tip to U-87 MG cells [4, 12]: 12.6%; Plateau [5]: 3.952 µg/mL; k ([5]; analyte in brackets of label): 0.1928 min⁻¹; Plateau [6]: 16.58 µg/mL; T1/2α [6]: 0.67 ± 0.03 min; kα [6]: 1.088 min⁻¹; Plateau ([7]; MDA-MB-231 cell homogenates): 552.9 µg/mL; k ([7]; MDA-MB-231 cell homogenates): 0.1551 min⁻¹; AUC(0-t) at 4.03 mM [7, 13]: 20000 µg·h/mL; C0 at 4.03 mM [7, 13]: 1420 µg/mL; half-life at 4.03 mM [7, 13]: 4.47 ± 1.27 min

**Q.** For `CC(C)C[C@H](NC(=O)[C@@H](COC(C)(C)C)NC(=O)[C@H](Cc1ccc(O)cc1)NC(=O)[C@H](CO)NC(=O)[C@H](Cc1c[nH]c2ccccc12)NC(=O)[C@H](Cc1cnc[nH]1)NC(=O)[C@@H]1CCC(=O)N1)C(=O)N[C@@H](CCCNC(=N)N)C(=O)N1CCC[C@H]1C(=O)NNC(N)=O` [Goserelin, goserelin acetate, reference compound], which “Binding Force” value ([1]; U-87 MG) is on record?
**A.** 29.88 ± 2.34 pN

**Q.** And the “Binding Probability” value ([1]; U-87 MG)?
**A.** 4.4 ± 0.94%

**Q.** What about the koff ([1]; U-87 MG) of the same compound?
**A.** 0.68 ± 0.08 s⁻¹

**Q.** And the “Binding Force” value ([1]; UP-007)?
**A.** 34.00 ± 15.5 pN

**Q.** And the “Binding Probability” value ([1]; UP-007)?
**A.** 7.48 ± 0.76%

**Q.** And the koff ([1]; UP-007)?
**A.** 1.54 ± 0.12 s⁻¹

**Q.** What about the “Binding Probability of TPGnRH nanofiber tip to U-87 MG cells” value [4, 11] of the same compound?
**A.** 3.8%

**Q.** And the “Binding Probability of TPGnRH nanofiber tip to U-87 MG cells” value [4, 12]?
**A.** 16.2%

**Q.** For `CC(=O)O[C@H]1C(=O)[C@@]2(C)[C@H]([C@H](OC(=O)c3ccccc3)[C@]3(O)C[C@H](OC(=O)[C@H](O)[C@@H](NC(=O)c4ccccc4)c4ccccc4)C(C)=C1C3(C)C)[C@]1(OC(C)=O)CO[C@@H]1C[C@@H]2O` [PAX, Paclitaxel, reference compound], which solubility ([8]; aqueous buffer) is on record?
**A.** 0.92 ± 1.35 µg/mL (≈ 1.08 µM)

**Q.** What about the solubility ([8]; aqueous with cosolvent or surfactant or cyclodextrin) of the same compound?
**A.** 29.3 ± 3.63 µg/mL (≈ 34.3 µM)

**Q.** What about the Papp A→B at 50 μg mL^−1 [9] of the same compound?
**A.** 0.19 ×10⁻⁶ cm/s

**Q.** And the “% release from 3D printed bioink” value ([10]; 0 minutes)?
**A.** 0%

**Q.** And the “% release from 3D printed bioink” value ([10]; 1 minutes)?
**A.** 13.1 ± 15.6%

**Q.** And the “% release from 3D printed bioink” value ([10]; 5 minutes)?
**A.** 13.7 ± 5.6%

**Q.** What about the “% release from 3D printed bioink” value ([10]; 10 minutes) of the same compound?
**A.** 18.0 ± 10.6%

**Q.** And the “% release from 3D printed bioink” value ([10]; 15 minutes)?
**A.** 10.7 ± 2.3%

**Q.** What about the “% release from 3D printed bioink” value ([10]; 30 minutes) of the same compound?
**A.** 11.8 ± 5.2%

**Q.** And the “% release from 3D printed bioink” value ([10]; 45 minutes)?
**A.** 13.7 ± 8.4%

**Q.** What about the “% release from 3D printed bioink” value ([10]; 60 minutes) of the same compound?
**A.** 20.7 ± 9.6%

**Q.** And the “% release from 3D printed bioink” value ([10]; 90 minutes)?
**A.** 24.6 ± 5.1%

**Q.** What about the “% release from 3D printed bioink” value ([10]; 120 minutes) of the same compound?
**A.** 26.9 ± 9.4%

**Q.** And the “% release from 3D printed bioink” value ([10]; 240 minutes)?
**A.** 19.0 ± 10.9%

**Q.** And the “% release from 3D printed bioink” value ([10]; 360 minutes)?
**A.** 24.8 ± 7.3%

**Q.** What about the “% release from 3D printed bioink” value ([10]; 1110 minutes) of the same compound?
**A.** 28.0 ± 11.4%

**Q.** What about the “% release from 3D printed bioink” value ([10]; 1440 minutes) of the same compound?
**A.** 30.2 ± 9.8%

**Q.** And the “% release from 3D printed bioink” value ([10]; 2760 minutes)?
**A.** 37.1 ± 7.2%
